Source: the supplement of paper PMC10307832

Legend:
Experiment in all cases: relative viability (nuclei count vs DMSO), 5 days (fraction); higher = more cells survive
[1] = compound: CC1=CC(=C(N1C2=CC=C(C=C2)Cl)C)C(=O)CN3CCCCC3 [IU1-47] + CCNC(=O)c1noc(-c2cc(C(C)C)c(O)cc2O)c1-c1ccc(CN2CCOCC2)cc1 [Luminespib] (partner 0.01 µM)
Method in brief: (§1)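 Relative viability divides the nuclei count in treated wells by that in vehicle wells. Lung cancer cell lines were seeded in 1536-well plates, dosed by pin tool the next day, and fixed and stained after 5 days in one step with final 0.05% Triton X-100, 1% formaldehyde and 1 ug/ml Hoechst. Dosing was a single drug or a fixed anchor-drug dose plus five library-drug doses (not always all listed) in √10 steps, and values are medians of duplicate plates imaged at 4×.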

[2] = compound: CC1=CC(=C(N1C2=CC=C(C=C2)Cl)C)C(=O)CN3CCCCC3 [IU1-47] + N=C(N)NC(=N)NCCc1ccccc1 [Phenformin] (partner 250 µM)
Method in brief: as §1

[3] = compound: CC1=CC(=C(N1C2=CC=C(C=C2)Cl)C)C(=O)CN3CCCCC3 [IU1-47] + Nc1ncn([C@H]2C[C@H](O)[C@@H](CO)O2)c(=O)n1 [Decitabine] (partner 2 µM)
Method in brief: as §1

[4] = compound: Cc1nc(C(=O)NCC(=O)O)c(O)c2ccc(Oc3ccccc3)cc12 [FG-4592] + C[C@]1(O)C[C@@H](c2nc(-c3ccc4ccc(-c5ccccc5)nc4c3)c3c(N)nccn32)C1 [Linsitinib] (partner 1 µM)
Method in brief: as §1

Cell Line | relative viability ([1]; first compound 0.08 µM) | relative viability ([1]; first compound 0.253 µM) | relative viability ([1]; first compound 0.8 µM) | relative viability ([1]; first compound 2.53 µM) | relative viability ([1]; first compound 8 µM) | relative viability ([2]; first compound 0.08 µM) | relative viability ([2]; first compound 0.253 µM) | relative viability ([2]; first compound 0.8 µM) | relative viability ([2]; first compound 2.53 µM) | relative viability ([2]; first compound 8 µM) | relative viability ([3]; first compound 0.08 µM) | relative viability ([3]; first compound 0.253 µM) | relative viability ([3]; first compound 0.8 µM) | relative viability ([3]; first compound 2.53 µM) | relative viability ([3]; first compound 8 µM) | relative viability ([4]; first compound 0.08 µM) | relative viability ([4]; first compound 0.253 µM) | relative viability ([4]; first compound 0.8 µM) | relative viability ([4]; first compound 2.53 µM) | relative viability ([4]; first compound 8 µM)
NCI-H661 | 0.901 | 0.936 | 1.01 | 0.924 | 0.877 | 0.286 | 0.295 | 0.28 | 0.245 | 0.291 | 0.531 | 0.575 | 0.596 | 0.556 | 0.503 | 0.475 | 0.588 | 0.55 | 0.678 | 0.446
HARA | 0.858 | 0.98 | 1.66 | – | 0.49 | 0.594 | 0.478 | 0.567 | – | 0.537 | 0.494 | – | 0.524 | 0.489 | 0.486 | 0.955 | 0.881 | – | 0.996 | 1.03
NCI-H596 | 0.926 | 1.05 | 1 | 1.12 | 0.752 | 0.786 | 0.61 | 0.78 | 0.709 | 0.677 | 1.05 | – | 1.03 | 1.09 | 0.977 | 1.28 | 1.01 | – | 1.04 | 0.983
NCI-H23 | 0.206 | 0.237 | 0.203 | 0.229 | 0.209 | 0.757 | 0.884 | 0.904 | 0.678 | 0.828 | 0.347 | – | 0.312 | 0.319 | 0.302 | 0.611 | 0.501 | 0.635 | 0.496 | 0.463
LCLC-97TM1 | 0.846 | 0.757 | 0.834 | 0.716 | 0.787 | 0.441 | 0.409 | 0.435 | 0.428 | 0.461 | 0.287 | 0.252 | 0.244 | – | 0.234 | 0.179 | 0.191 | 0.17 | – | 0.183
EPLC-272H | 0.382 | 0.261 | 0.221 | – | 0.315 | 0.294 | 0.298 | 0.23 | – | 0.243 | 0.362 | 0.38 | 0.4 | – | 0.34 | 1.09 | 1.06 | 0.859 | 1.18 | 1.03
NCI-H1915 | 0.816 | 0.804 | 0.848 | – | 0.728 | 0.373 | 0.354 | 0.342 | – | 0.332 | 0.269 | 0.256 | 0.27 | 0.25 | 0.247 | 1.06 | 1.07 | 1.19 | 1.11 | 1.07
NCI-H2405 | 0.77 | 0.824 | 0.739 | 0.694 | 0.804 | 0.404 | 0.415 | 0.386 | 0.371 | 0.365 | 0.839 | 0.762 | 0.769 | 0.779 | 0.765 | – | 0.583 | 0.884 | 0.801 | 0.72
NCI-H322M | 1.03 | 0.929 | 0.922 | 0.879 | 0.715 | 0.825 | 0.768 | 0.789 | 0.809 | 0.633 | 0.776 | 0.807 | 0.645 | 0.683 | 0.652 | 0.858 | 0.914 | 0.807 | 0.92 | 0.861
NCI-H1395 | 0.678 | 0.715 | 0.547 | 0.597 | 0.813 | 0.408 | 0.456 | 0.472 | 0.436 | 0.374 | 0.687 | 0.802 | 0.699 | 0.704 | 0.713 | 1.06 | 0.949 | – | 1.05 | 0.824
NCI-H358 | 0.366 | 0.328 | 0.347 | 0.3 | 0.349 | 0.328 | 0.323 | 0.339 | 0.307 | 0.274 | 0.242 | 0.204 | 0.2 | 0.201 | 0.21 | 0.723 | 0.679 | 0.73 | 0.681 | 0.605
NCI-H838 | 0.31 | 0.347 | 0.262 | 0.243 | 0.282 | 0.559 | 0.578 | 0.549 | 0.562 | 0.318 | 0.423 | 0.451 | 0.471 | 0.501 | 0.449 | 1.1 | 0.941 | 1.01 | 1.04 | 0.938
